# Reference: patent US9562084B2, “Peptides derived from NCAPG2 and their use” (NATIONAL CANCER CENTER, priority 2014, dated 2017)
# Where a SMILES comes first, the peptide text is derived from it. [ ]: non-standard residue; d: D form. pT = C[C@@H](OP(=O)(O)O)[C@H](N)C(=O)O
# Legend:
# human PLK2-PBD (451-685) = target: T1, human PLK2-PBD (451-685) (Homo sapiens, UniProt Q9NYY3); assay: Fluorescence polarization binding assay, PLK2-PBD; conditions: FITC-labelled peptide 10 nM, protein 0 to 4 uM
# T1 construct: PLK2-PBD (451-685); GST (N, cleaved yes); made in house; host or cells: E. coli Rosetta2 (DE3) pLysS
# T1 sequence (Q9NYY3 451-685): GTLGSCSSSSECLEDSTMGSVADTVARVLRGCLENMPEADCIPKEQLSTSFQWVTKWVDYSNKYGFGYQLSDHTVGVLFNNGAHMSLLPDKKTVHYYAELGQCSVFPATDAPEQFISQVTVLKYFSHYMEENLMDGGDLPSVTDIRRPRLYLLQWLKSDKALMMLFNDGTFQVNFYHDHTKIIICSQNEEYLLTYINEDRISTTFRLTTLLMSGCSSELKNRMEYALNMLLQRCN
# Protocol: (§1) The human PLK1-PBD (371-594), PLK2-PBD (451-685) and PLK3-PBD (412-646) genes were cloned into pGEX6p-1 vector using EcoRI/XhoI restriction sites. Proteins were over expressed in E. coli strain Rosetta2 (DE3) pLysS. The cells were grown in Terrific Broth medium to an OD600 of 0.6 at 37° C. and recombinant proteins were induced with 0.1 mM isopropyl b-D-thiogalactopyranoside (IPTG) at 25° C. for PLK2 and 20° C. for PLK1 and PLK3, respectively. The cells were further grown at 25° C. (PLK2) or 20° C. (PLK1 and PLK3) for 20 h after IPTG induction. Each cell pellet was lysed with each PLK Binding buffer as described below. […] The purified PLK-PBD proteins were concentrated and used for the fluorescence polarization binding assay.
# (§2) For the fluorescence polarization binding assay, each fluorescein isothiocyanate (FITC)-labeled 1010pT (GVLSpTLI), 1010T (GVLSTLI), 1010E (GVLSELI), or 1010D (GVLSDLI) peptide was mixed with purified PLK1, PLK2 or PLK3 and incubated in a buffer containing 10 mM HEPES (pH 7.5), 50 mM NaCl, 1 mM EDTA, 1 mM DTT and 0.0025% (v/v) Tween 20. […] Fluorescence polarization was analyzed 30 min after mixing the peptide and proteins in a 96-well plate using an INFINTE 200 PRO (Tecan). […]
# human PLK1-PBD (371-594) = target: T2, human PLK1-PBD (371-594) (Homo sapiens, UniProt P53350); assay: Fluorescence polarisation binding assay for the PBD of PLK1; conditions: FITC-labelled peptide 10 nM, protein 0 to 4 μM
# T2 construct: The human PLK1-PBD (371-594) was amplified by PCR; GST (N, cleaved yes); made in house; host or cells: E. coli Rosetta2(DE3)pLysS
# T2 sequence (P53350 371-594): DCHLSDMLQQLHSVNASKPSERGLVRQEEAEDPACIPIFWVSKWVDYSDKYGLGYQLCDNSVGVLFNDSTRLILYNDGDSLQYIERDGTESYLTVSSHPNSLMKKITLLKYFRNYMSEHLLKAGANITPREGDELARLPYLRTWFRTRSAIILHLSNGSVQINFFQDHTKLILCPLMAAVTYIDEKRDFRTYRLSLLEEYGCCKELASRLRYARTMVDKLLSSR
# Protocol: The human PLK1-PBD (371-594) was amplified by PCR and cloned into the pGEX6p-1 vector using the EcoRI and XhoI restriction enzyme sites. The protein was overexpressed in E. coli Rosetta2(DE3)pLysS cells (Novagen). The cells were grown at 37° C. in 3 L of Terrific Broth medium to an OD600 of 0.6, and recombinant protein expression was induced with 0.1 mM isopropyl β-D-thiogalactopyranoside (IPTG) at 20° C. The cells were further grown at 20° C. for 20 hr after IPTG induction. The purification methods were similar to methods that have been previously reported (Cheng, K. Y., et al. The crystal structure of the human polo-like kinase-1 polo box domain and its phospho-peptide complex. EMBO J 22, 5757-68 (2003)). Briefly, the cell pellet was resuspended in ice-cold HBS buffer (10 mM HEPES pH 7.5, 200 mM NaCl, 3.4 mM EDTA, 0.01% (v/v) 1-thioglycerol) and homogenized by sonication. After sonication, the cell debris was centrifuged and supernatant was applied to GST Sepharose resin (GE Healthcare). After extensive washing with HBS buffer, protein was eluted with HBS buffer supplemented with 20 mM reduced glutathione. PreScission protease (GE Healthcare) was added to eluted protein in order to remove the fused GST and the cleavage product was diluted and re-passed through GST Sepharose column. The flow through was collected and applied to Superdex 75 prep grade column (GE Healthcare) equilibrated with HBS buffer. The purified protein was concentrated to 6 mg/ml and used for fluorescence polarization binding assay or crystal screening.
# For the fluorescence polarisation binding assay, FITC-labelled 1010pT (GVLSpTLI) or 1010T (GVLSTLI) (SEQ ID NO: 8) peptide was mixed with purified PBD and incubated in a buffer containing 10 mM HEPES (pH7.5), 50 mM NaCl, 1 mM EDTA, 1 mM DTT, and 0.0025% (v/v) Tween 20. The final protein concentrations ranged from 0 to 4 μM, and the final peptide concentration was 10 nM. Fluorescence polarisation was analysed 30 min after mixing the peptide and proteins in a 96-well plate using a VERSAmax microplate reader (Molecular Devices). Binding curves were fitted using GraphPad Prism software (GraphPad Software).
# The human PLK1-PBD (371-594), PLK2-PBD (451-685) and PLK3-PBD (412-646) genes were cloned into pGEX6p-1 vector using EcoRI/XhoI restriction sites. […] The purified PLK-PBD proteins were concentrated and used for the fluorescence polarization binding assay.
# For the fluorescence polarization binding assay, each fluorescein isothiocyanate (FITC)-labeled 1010pT (GVLSpTLI), 1010T (GVLSTLI), 1010E (GVLSELI), or 1010D (GVLSDLI) peptide was mixed with purified PLK1, PLK2 or PLK3 and incubated in a buffer containing 10 mM HEPES (pH 7.5), 50 mM NaCl, 1 mM EDTA, 1 mM DTT and 0.0025% (v/v) Tween 20. […]
# human PLK3-PBD (412-646) = target: T3, human PLK3-PBD (412-646) (Homo sapiens, UniProt Q9H4B4); assay: Fluorescence polarization binding assay, PLK3-PBD; conditions: FITC-labelled peptide 10 nM, protein 0 to 4 uM
# T3 construct: PLK3-PBD (412-646); GST (N, cleaved yes); made in house; host or cells: E. coli Rosetta2 (DE3) pLysS
# T3 sequence (Q9H4B4 412-646): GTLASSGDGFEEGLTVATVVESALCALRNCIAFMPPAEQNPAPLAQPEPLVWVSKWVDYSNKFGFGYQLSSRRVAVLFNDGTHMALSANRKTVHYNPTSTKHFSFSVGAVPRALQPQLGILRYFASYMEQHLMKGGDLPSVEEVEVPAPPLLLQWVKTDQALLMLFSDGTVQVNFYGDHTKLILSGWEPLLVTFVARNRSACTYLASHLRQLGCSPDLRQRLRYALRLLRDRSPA
# Protocol: as §1, §2
# C. elegans = assay: Embryonic mitosis and development after nocodazole treatment of worms; type: in vivo; conditions: nocodazole alone, without capg-2 RNAi
# Protocol: C. elegans were cultivated on NGM plates at 20° C. as a standard culture method (Brenner, S. Genetics 77, 71-94 (1974)). The capg-2 RNAi clone was obtained from Dr. J. Ahringer's bacteria-feeding RNAi library, which was a kind gift from Dr. J. Lee (Seoul National University). The wild-type N2 strain was used for measuring embryo lethality when capg-2 RNAi was treated with nocodazole. RW10006 (HIS-72::GFP), XA3501 (GFP::HIS-11 and GFP::TBB-2), JG479 (NPP-1::GFP, mCherry::HIS-58 and GFP::TBB-2) and SA17(GFP::PLK-1) were used to determine the effects of capg-2 knockdown on mitosis. JG479 was generated by crossing XA3501 and OCF3 (NPP-1::GFP and mCherry::HIS-58). HIS-72 is histone 3, and TBB-2 is β-tubulin. Both HIS-11 and HIS-58 are histone 2B proteins (www.wormbase.org). Most strains were provided by the CGC, which is funded by the NIH Office of Research Infrastructure Programs (P40 OD010440). For capg-2 RNA interference, L4 worms were transferred to the RNAi plate, and the F1 embryos were observed. The HT115 E. coli strain, which contains the empty RNAi vector (L4440), was used as the control. […] The worms were removed after laying eggs for 12 hours, and the dead embryos were counted the next day. […]
Compound,binding to PLK2-PBD (in words) (human PLK2-PBD (451-685)),binding to PLK1-PBD (in words) (human PLK1-PBD (371-594)),binding to PLK1-PBD (in words) (human PLK1-PBD (371-594); listed as GVLS-pT-LI),binding to PLK3-PBD (in words) (human PLK3-PBD (412-646)),effect on mitosis of embryos (C. elegans)
"CC[C@H](C)[C@H](NC(=O)[C@H](CC(C)C)NC(=O)[C@@H](NC(=O)[C@H](CO)NC(=O)[C@H](CC(C)C)NC(=O)[C@@H](NC(=O)CN)C(C)C)[C@@H](C)OP(=O)(O)O)C(N)=O [1010pT, GVLSpTLI] (H-GVLS[pT]LI-NH2; N-terminus and C-terminus assumed)",did not bind,specifically binds,interacts strongly,did not bind,–
"COC(=O)Nc1nc2ccc(C(=O)c3cccs3)cc2[nH]1 [Nocodazole, nocodazole]",–,–,–,–,did not directly affect mitosis
